Source: patent publication US7365083B2, “Amide derivatives as NMDA receptor antagonists” (Richter Gedeon Vegyeszeti Gyar Rt., priority 2000, dated 2008)
Where two headings read alike, the source gives them in different places.

Key:
Assay type in all cases: cell-based
NMDA receptors = biological target: T1, NMDA receptors (Rattus norvegicus, UniProt P35439+Q00960); assay: NMDA antagonist potency in vitro by measurement of intracellular calcium concentration with a plate reader fluorimeter, primary neocortical cell cultures
T1 construct: primary neocortical cell cultures derived from 17 day old Charles River rat embryos; endogenous in cells; host or cells: primary neocortical neurons from 17 day old rat embryos, 4-7 days in vitro
T1 sequence (Q00960 27-1482, other chains not shown): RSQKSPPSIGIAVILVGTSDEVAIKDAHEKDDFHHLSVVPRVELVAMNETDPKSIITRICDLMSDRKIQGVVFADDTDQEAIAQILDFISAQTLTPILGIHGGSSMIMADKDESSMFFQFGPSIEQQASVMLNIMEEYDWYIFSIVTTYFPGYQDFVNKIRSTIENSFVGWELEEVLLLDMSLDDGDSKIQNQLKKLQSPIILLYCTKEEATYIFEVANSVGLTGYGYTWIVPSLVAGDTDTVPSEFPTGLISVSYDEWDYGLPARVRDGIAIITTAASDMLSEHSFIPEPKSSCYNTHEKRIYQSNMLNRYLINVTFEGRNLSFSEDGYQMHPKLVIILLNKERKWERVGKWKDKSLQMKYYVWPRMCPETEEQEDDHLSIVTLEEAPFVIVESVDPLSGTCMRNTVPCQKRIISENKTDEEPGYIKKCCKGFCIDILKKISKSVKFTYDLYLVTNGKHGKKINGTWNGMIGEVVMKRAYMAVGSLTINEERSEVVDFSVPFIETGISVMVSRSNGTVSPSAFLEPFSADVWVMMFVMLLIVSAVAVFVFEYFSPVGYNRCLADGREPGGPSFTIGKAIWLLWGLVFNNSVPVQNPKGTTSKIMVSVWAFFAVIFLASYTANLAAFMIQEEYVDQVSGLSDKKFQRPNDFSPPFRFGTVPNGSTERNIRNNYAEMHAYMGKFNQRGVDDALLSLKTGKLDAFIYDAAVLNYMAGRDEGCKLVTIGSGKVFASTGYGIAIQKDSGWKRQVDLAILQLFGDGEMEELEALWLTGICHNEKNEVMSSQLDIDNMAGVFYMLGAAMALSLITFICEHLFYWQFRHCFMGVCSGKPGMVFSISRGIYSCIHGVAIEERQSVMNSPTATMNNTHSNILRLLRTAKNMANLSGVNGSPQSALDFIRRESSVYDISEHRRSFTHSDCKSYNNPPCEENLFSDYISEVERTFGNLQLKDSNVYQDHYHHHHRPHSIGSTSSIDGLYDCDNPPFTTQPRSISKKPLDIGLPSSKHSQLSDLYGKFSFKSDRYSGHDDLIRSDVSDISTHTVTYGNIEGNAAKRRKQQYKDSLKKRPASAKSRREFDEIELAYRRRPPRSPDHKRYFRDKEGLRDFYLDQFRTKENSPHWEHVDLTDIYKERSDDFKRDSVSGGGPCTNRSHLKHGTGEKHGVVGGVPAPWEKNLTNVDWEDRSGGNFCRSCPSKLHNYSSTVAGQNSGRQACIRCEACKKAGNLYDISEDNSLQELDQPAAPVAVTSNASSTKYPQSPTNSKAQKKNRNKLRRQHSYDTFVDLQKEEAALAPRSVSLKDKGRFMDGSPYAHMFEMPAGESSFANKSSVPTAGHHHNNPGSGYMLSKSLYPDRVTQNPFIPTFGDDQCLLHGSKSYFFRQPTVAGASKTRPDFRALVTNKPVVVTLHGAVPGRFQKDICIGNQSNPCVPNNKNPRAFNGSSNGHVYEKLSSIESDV
Text: It is known that during postnatal development the subunit composition of neuronal NMDA receptors is changing. […] Since NMDA receptors are known to be permeable to calcium ions upon excitation, we characterized the NMDA receptor activation by measurement of rise in intracellular calcium concentration following the agonist (NMDA) application to the cells.
Assessment of NMDA Antagonist Potency In Vitro by Measurement of Intracellular Calcium Concentration with a Plate Reader Fluorimeter
The cultures were used for the intracellular calcium measurements after 4-7 days in vitro. […] To stop the loading the cells were washed twice with the solution used for the measurement (140 mM NaCl, 5 mM KCl, 2 mM CaCl2, 5 mM HEPES, 5 mM HEPES-Na, 20 mM glucose, 10 μM glycine, pH=7.4). After washing the test compounds were added to the cells in the above solution (90 μl/well). Intracellular calcium measurements were carried out with a plate reader fluorimeter: elevation of Fluo-4-fluorescence and so, intracellular calcium was induced by application of 40 μM NMDA. Inhibitory potency of the test compounds was assessed by measuring the reduction in the calcium elevation in the presence of different concentrations of the compounds. After the measurement a standard calibration procedure with slight modifications was used to convert the fluorescent data to calcium concentration values [Meth. Cell.
Dose-response curves and IC50-values were calculated by using data derived from at least three independent experiments. Inhibitory potency of a compound at a single concentration point was expressed as percent inhibition of the NMDA response. Sigmoidal concentration-inhibition curves were fit to the data and IC50 values were determined as the concentration that produces half of the maximal inhibition caused by the compound.

NR1a/NR2A receptors = biological target: T2, NR1a/NR2A receptors (Rattus norvegicus, UniProt Q00959); assay: NMDA antagonist potency on HEK cells transiently transfected with NR1a/NR2A subunits, patch clamp method; conditions: HEK293, 15 μM test concentration, 100 μM NMDA, -70 mV, read-out: NR1/NR2A % Inhibition of NMDA Ca2+-response 15 μM
T2 construct: expressed in transfected cells; host or cells: HEK293, transient expression
T2 sequence (Q00959 20-1464 limits assumed): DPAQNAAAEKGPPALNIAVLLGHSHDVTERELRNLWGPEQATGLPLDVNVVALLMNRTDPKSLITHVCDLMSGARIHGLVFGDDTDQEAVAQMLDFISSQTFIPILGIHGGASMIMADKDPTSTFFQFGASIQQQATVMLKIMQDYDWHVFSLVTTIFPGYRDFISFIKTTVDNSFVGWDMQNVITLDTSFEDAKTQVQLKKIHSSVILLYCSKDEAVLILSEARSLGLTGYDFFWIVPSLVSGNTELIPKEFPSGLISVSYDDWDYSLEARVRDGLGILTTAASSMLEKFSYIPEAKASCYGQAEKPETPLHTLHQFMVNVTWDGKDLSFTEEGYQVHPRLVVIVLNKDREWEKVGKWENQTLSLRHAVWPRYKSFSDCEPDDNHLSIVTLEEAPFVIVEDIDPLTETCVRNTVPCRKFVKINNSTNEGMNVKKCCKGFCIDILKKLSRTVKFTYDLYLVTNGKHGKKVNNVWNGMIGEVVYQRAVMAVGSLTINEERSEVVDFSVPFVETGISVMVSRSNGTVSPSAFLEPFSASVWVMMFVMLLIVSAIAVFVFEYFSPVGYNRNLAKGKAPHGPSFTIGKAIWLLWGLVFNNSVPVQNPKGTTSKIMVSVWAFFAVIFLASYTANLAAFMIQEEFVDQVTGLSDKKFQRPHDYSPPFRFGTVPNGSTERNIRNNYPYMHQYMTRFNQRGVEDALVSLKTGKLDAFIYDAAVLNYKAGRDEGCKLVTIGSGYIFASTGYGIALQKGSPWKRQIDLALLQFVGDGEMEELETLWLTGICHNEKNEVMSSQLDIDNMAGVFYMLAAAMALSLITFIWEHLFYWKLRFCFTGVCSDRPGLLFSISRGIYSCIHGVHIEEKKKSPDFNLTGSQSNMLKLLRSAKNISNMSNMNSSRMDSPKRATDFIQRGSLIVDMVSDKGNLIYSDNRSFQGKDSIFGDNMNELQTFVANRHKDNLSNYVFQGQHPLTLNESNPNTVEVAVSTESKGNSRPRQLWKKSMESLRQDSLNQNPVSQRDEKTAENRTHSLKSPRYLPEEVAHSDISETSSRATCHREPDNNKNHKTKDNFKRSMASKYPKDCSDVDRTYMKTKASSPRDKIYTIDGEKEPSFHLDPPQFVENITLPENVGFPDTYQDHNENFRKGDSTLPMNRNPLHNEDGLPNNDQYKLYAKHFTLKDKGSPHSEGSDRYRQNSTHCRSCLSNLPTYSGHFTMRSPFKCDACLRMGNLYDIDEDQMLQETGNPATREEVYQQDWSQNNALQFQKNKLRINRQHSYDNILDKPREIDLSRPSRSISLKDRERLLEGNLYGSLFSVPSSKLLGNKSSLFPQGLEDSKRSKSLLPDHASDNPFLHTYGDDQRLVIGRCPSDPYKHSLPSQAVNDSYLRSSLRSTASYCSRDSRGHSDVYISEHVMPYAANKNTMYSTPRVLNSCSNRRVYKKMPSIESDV
Description: (§1) Genes cloned according to published sequences [gi508809 (rat NR1a), gi205738 (rat NR2B), gi2905805 (rat NR2A)] were inserted into inducible mammalian expression vectors bearing different resistance genes (hygromycine in case of NR1a or neomycine in case of NR2 subunits). The vector constructs were introduced into HEK293 cells using a cationic lipid-mediated transfection method. Protein expression was induced by 3 μM MuristeronA. Cells were maintained in the presence of 365 μM ketamine for 48-72 hours under an atmosphere of 95% air-5% CO2 at 37° C. before the experiments.
Assessment of NMDA Antagonist Potency on Cells Transfected with NR1a/NR2A Subunits—Patch Clamp Method
Cells transiently expressing NR1a/NR2A receptors and grown onto coverslips were used in patch clamp experiments. Whole-cell patch clamp recording was done according to the standard technique. Cell cultures were constantly superfused with an extracellular solution (140 mM NaCl, 5 mM KCl, 5 mM Hepes, 5 mM Na-Hepes, 2 mM CaCl2, 20 mM glucose, 10 μM glycine, pH 7.35) at room temperature. Patch pipettes with resistance between 3 and 6 MΩ were filled with an intracellular solution (140 mM CsCl, 11 mM EGTA, and 10 mM Hepes, pH 7.3). The inward current elicited by 100 μM NMDA was recorded from cells voltage clamped at −70 mV. Compounds were applied via a multibarrel ejection device controlled by electromagnetic valves. First NMDA was repeatedly administered until stabilization of responses, then it was given in the presence of the test compound. The degree of inhibition—expressed as percentage—was calculated from the peak currents evoked by NMDA in the presence and absence of the test compound. Selectivity ratio (NR2B/NR2A), was calculated as the ratio of test dose on NR1/2A transfected cells and IC50 value of NMDA antagonism on NR1/NR2B expressing cells.

NR1a/NR2B receptors = biological target: T3, NR1a/NR2B receptors (Rattus norvegicus, UniProt P35439+Q00960); assay: NMDA antagonist potency on HEK293 cells stably expressing NR1a/NR2B subunits, fluorimetric method; conditions: for IC50: HEK293 cells stably expressing NR1a/NR2B, intracellular calcium, plate reader fluorimeter, means of 3 experiments, read-out: NR1/NR2B IC50
T3 construct: expressed in transfected cells
T3 sequence (Q00960 27-1482, other chains not shown): as the sequence (Q00960 27-1482, other chains not shown) above
Description: as §1
Assessment of NMDA Antagonist Potency on Cells Transfected with NR1a/NR2B Subunits—Fluorimetric Method
For establishment of cell clones stably expressing NR1a/NR2B receptors, transfected cells were exposed to the selecting antibiotics for 4 weeks then resistant clones were grown up. The expression of NR2B subunit protein was verified by a flow cytometry based immunocytochemical method. Positive clones were further tested for functional activity in patch clamp experiments. […] Induction of protein expression and maintenance of cells were the same as described above.
The cells were plated onto standard 96-well microplates. A plate reader-based fluorometric assay was used to measure NMDA antagonism. The method was essentially similar to that described above for testing primary cultures of rat cortical neurons.

[1] = rat primary neocortical cultures, 4-7 days in vitro, calcium elevation induced by 40 μM NMDA, Fluo-4, read-out: NMDA IC50

Row | IC50 (NMDA receptors; [1]) | Compound | also measured
1 | 440 nM | O=C(c1cc2cc3[nH]c(=O)[nH]c3cc2[nH]1)N1CCC(Cc2ccccc2)CC1 [Compound 4570002045, 6-(4-Benzylpiperidin-1-carbonyl)-3,5-dihydro-1H-imidazo[4,5-f]indole-2-one] | –
2 | 328 nM | O=C(c1nc2c(ccc3oc(=O)[nH]c32)[nH]1)N1CCC(Cc2ccccc2)CC1 [Compound 4570001971, 7-(4-Benzylpiperidin-1-carbonyl)-1,6-dihydro-3-oxa-1,6,8-triaza-as-indacen-2-one] | –
3 | 60 nM | Oc1ccc(OCCN2CCC(Cc3ccc(F)cc3)CC2)cc1 [Co-111103, 1-[2-(4-hydroxyphenoxy)ethyl]-4-(4-fluorobenzyl)piperidine, reference compound] | –
4 | 193 nM | O=C(c1nc2cc3[nH]c(=O)oc3cc2[nH]1)N1CCC(Cc2ccccc2)CC1 [Compound 4570001972, 6-(4-Benzylpiperidin-1-carbonyl)-3,5-dihydro-imidazo[4′,5′;4,5]benzo[1,2-d]oxazole-2-one] | –
5 | 9 nM | Cc1ccc(CC2CCN(C(=O)c3nc4ccc(O)cc4[nH]3)CC2)cc1 [Compound 4570001378, (6-Hydroxy-1H-benzoimidazol-2-yl)-[4-(4-methyl-benzyl)-piperidine-1-yl]-methanone] | –
6 | 50 nM | O=C(c1cc2c(ccc3[nH]cnc32)[nH]1)N1CCC(Cc2ccccc2)CC1 [Compound 4570001779, (4-Benzylpiperidin-1-yl)-(3,6-dihydro-imidazo[4,5-e]indol-7-yl)methanone] | –
7 | 127 nM | Cc1ccc(CC2CCN(C(=O)c3cc4c(ccc5[nH]ncc54)[nH]3)CC2)cc1 [Compound 4570002340, (3,6-Dihydro-pirrolo[3,2-e]indazol-7-yl)-[4-(4-methylbenzyl)piperidin-1-yl]methanone] | –
8 | 150 nM | O=C(c1cc2c(ccc3cn[nH]c32)[nH]1)N1CCC(Cc2ccc(F)cc2)CC1 [Compound 4570001661, [4-(4-Fluorobenzyl)piperidin-1-yl]-(1,6-dihydro-pirrolo[2,3-g]indazol-7-yl)-methanone] | –
9 | 58 nM | O=C(c1cc2c(ccc3cn[nH]c32)[nH]1)N1CCC(Cc2ccccc2)CC1 [Compound 4570001662, (4-Benzylpiperidin-1-yl)-(1,6-dihydro-pirrolo[2,3-g]indazol-7-yl)-methanone] | –
10 | 41 nM | O=C(c1cc2cc3[nH]c(=O)oc3cc2[nH]1)N1CCC(Cc2ccc(F)cc2)CC1 [Compound 4570001484, 6-[4-(4-Fluorobenzyl)piperidin-1-carbonyl]-1,5-dihydro-oxazolo[4,5-f]indole-2-one] | –
11 | – | O=C(c1cc2cc3[nH]c(=O)oc3cc2[nH]1)N1CCC(Cc2ccccc2)CC1 [Compound 4570001461, 6-(4-Benzylpiperidin-1-carbonyl)-1,5-dihydro-oxazolo[4,5-f]indole-2-one] | inhibition at 15 µM (NR1a/NR2A receptors): 14.9%; IC50 (NR1a/NR2B receptors): 15 nM
12 | – | C[C@@H](CN1CCC(Cc2ccccc2)CC1)[C@@H](O)c1ccc(O)cc1 [Ro 25.6981, R-(R*,S*)-1-(4-hydroxyphenyl)-2-methyl-3-[4-(phenylmethyl)piperidin-1-yl]-1-propanol, reference compound] | IC50 (NMDA receptors): 159 nM
13 | 79 nM | O=C(c1cc2cc3[nH]c(=O)oc3cc2[nH]1)N1CCC(OCc2ccccc2)CC1 [Compound 4570001462, 6-(4-Benzyloxypiperidin-1-carbonyl)-1,5-dihydro-oxazolo[4,5-f]indole-2-one] | –
14 | 392 nM | O=C(c1cc2ccc3[nH]ccc3c2[nH]1)N1CCC(Cc2ccccc2)CC1 [Compound 4514305, 1-(4-Benzylpiperidin-1-yl)-1-(1,6-dihydro-1,6-diaza-as-indacene-2-yl)methanone] | –
15 | – | C[C@@H]([C@@H](O)c1ccc(O)cc1)N1CCC(O)(c2ccccc2)CC1 [CP 101,606, (1S,2S)-1-(4-hydroxyphenyl)-2-(4-hydroxy-4-phenylpiperidine-1-yl)-1-propanol, reference compound] | inhibition at 15 µM (NR1a/NR2A receptors): -8.8%
16 | 42 nM | Cc1ccc(OC2CCN(C(=O)c3cc4c(ccc5[nH]ncc54)[nH]3)CC2)cc1 [Compound 4570002260, (3,6-Dihydro-pirrolo[3,2-e]indazol-7-yl)-(4-p-tolyloxypiperidin-1-yl)methanone] | inhibition at 15 µM (NR1a/NR2A receptors): 3.3%; IC50 (NR1a/NR2B receptors): 30 nM; selectivity toward NR2B subunit containing NMDA receptors (in words) (NR1a/NR2B receptors; according to the results in Table 2): highly selective; Selectivity (selectivity ratio NR2B/NR2A) (NR1a/NR2B receptors; ratio of test concentration on NR1/NR2A transfected cells and IC50 value on NR1/NR2B expressing cells): >500
17 | 88 nM | O=C(c1cc2c(ccc3[nH]cnc32)[nH]1)N1CCC(Cc2ccc(F)cc2)CC1 [Compound 4570001688, [4-(4-Fluorobenzyl)piperidin-1-yl]-(3,6-dihydro-imidazo[4,5-e]indol-7-yl)methanone] | –
18 | 90 nM | O=C(c1cc2ccc(O)cc2[nH]1)N1CCC(Cc2ccc(F)cc2)CC1 [Compound 4513848, 1-[4-(4-Fluorobenzyl)piperidine-1-yl]-1-(6-hydroxy-1H-indole-2-yl)methanone] | –
19 | 22 nM | O=C(c1cc2c(ccc3[nH]ncc32)[nH]1)N1CCC(Cc2ccc(F)cc2)CC1 [Compound 4570001690, [4-(4-Fluorobenzyl)piperidin-1-yl]-(3,6-dihydro-pirrolo[3,2-e]indazol-7-yl)methanone] | –
20 | 20 nM | O=C(c1cc2c(ccc3[nH]ncc32)[nH]1)N1CCC(Cc2ccccc2)CC1 [Compound 4570001689, (4-Benzylpiperidin-1-yl)-(3,6-dihydro-pirrolo[3,2-e]indazol-7-yl)methanone] | –

Row | Compound | IC50 (NMDA receptors; [1]) | also measured
21 | O=C(CCN1CCC(Cc2ccc(F)cc2)CC1)c1ccc2[nH]c(=O)oc2c1 [EMD 95885, reference compound] | 35 nM | –
